Data published in patent publication US20020103251A1, “Cholesterol-lowering therapy” (priority 1997, published 2002).

Columns and labels:
[1] = test system: men and women with average to mildly elevated total and LDL-cholesterol, below average HDL-cholesterol and no clinical evidence of atherosclerotic …; test: AFCAPS/TexCAPS double-blind, randomized, placebo controlled primary prevention trial of lovastatin; type: in vivo, human
Text: The following is a description of a clinical trial referred to herein as “AFCAPS/TexCAPS” or “AFCAPS” employing lovastatin to exemplify the methods of the present invention.
AFCAPS/TexCAPS was a primary prevention endpoint event trial which: (1) included unstable angina as a primary endpoint, reflecting the trend to treat coronary heart disease aggressively before a myocardial infarction has occurred; 2) involved aggressive pharmacologic intervention, with titration, to target an LDL-cholesterol goal lower than current National Cholesterol Education Panel guidelines for primary prevention; and 3) included a cohort comprised of men and women with a broad age range encompassing the elderly and included persons with a lipid profile consisting of average total and LDL-cholesterol, below average HDL-cholesterol levels; total cholesterol/HDL-cholesterol ratio greater than or equal to 4.5, with a baseline mean ratio of 6.1 for the cohort; and LDL/HDL-cholesterol ratio greater than or equal to 4.
Entrance inclusion criteria were LDL-cholesterol 130-190 mg/dl (or <130 if the ratio of total cholesterol/HDL is >6) and HDL-cholesterol ≦45 mg/dl for men and ≦47 mg/dl for women.
AFCAPS/TexCAPS was a double-blind, randomized, placebo controlled trial designed and powered to investigate whether chronic lipid-lowering, with lovastatin will decrease the rate of first acute major coronary events (e.g. sudden cardiac death, fatal and non-fatal myocardial infarction and unstable angina) compared to intervention with diet alone during at least 4.5 years of follow-up in a cohort without clinical evidence of atherosclerotic cardiovascular disease and with average to mildly elevated total cholesterol, average to midly elevated LDL-cholesterol, and below average HDL-cholesterol. Secondary objectives included whether chronic treatment with lovastatin, compared to placebo, would decrease cardiovascular morbidity and mortality across the spectrum of clinical events, by measuring the rates of: (1) fatal and non-fatal coronary revascularization procedures (2) unstable angina, (3) fatal and non-fatal myocardial infarction, (4) fatal and non-fatal cardiovascular events, (5) fatal and non-fatal coronary events.
All participants underwent dietitian taught group instruction in the American Heart Association Step 1 diet commencing at least 12 weeks prior to randomization (Week -12) and reinforced at Weeks-4 and -2. Baseline observations included collection of medical history, health habit and demographic data, physical exam, eye exam (San Antonio clinic only), chest X-ray, mammogram (women), electrocardiogram and analysis of lipids/lipoproteins, hematology, blood chemistry and urine. A 2-week placebo baseline run-in was followed by randomization of eligible compliant participants to treatment with lovastatin or placebo.
Participants included 6605 men and women with normal to mildly elevated total and LDL-cholesterol and below average HDL-cholesterol defined as: total cholesterol 180-264 mg/dl, LDL-cholesterol 130-190 mg/dl, HDL-cholesterol ≦45 mg/dl for men and ≦47 mg/dl for women and triglycerides ≦400 mg/dl. All lipid/lipoprotein entrance criteria had to be met on average at both four and two weeks prior to randomization (after at least eight weeks of diet therapy). In addition, for both total and LDL-cholesterol, the two eligibility determinations had to be within 15% of each other.
Excluded for clinical evidence of atherosclerotic cardiovascular disease were men and women who had: prior history of myocardial infarction; angina; claudication; cerebrovascular accident; or transient ischemic attack. Also excluded were those aged >73 years or <45 years (men) or <55 years (women) or those with secondary hyperlipoproteinemia, nephrotic syndrome, uncontrolled or insulin-dependent diabetes mellitus or uncontrolled hypertension.

[2] = test system: patients with hypercholesterolemia and/or CHD; conditions: coronary and carotid arteries; cited from earlier work
[3] = Secondary Endpoint: Fatal and Nonfatal Coronary Events, lovastatin vs placebo
[4] = first acute major coronary events, baseline HDL-C tertile 34.5-39.5 mg/dl
[5] = first acute major coronary events, baseline HDL-C tertile <34.0 mg/dl
[6] = first acute major coronary events, baseline HDL-C tertile >39.5 mg/dl
[7] = first acute major coronary events, baseline LDL-C tertile 142.0-156.8 mg/dl
[8] = first acute major coronary events, baseline LDL-C tertile <142 mg/dl
[9] = first acute major coronary events, baseline LDL-C tertile >156.9 mg/dl

For CC[C@H](C)C(=O)O[C@H]1C[C@@H](C)C=C2C=C[C@H](C)[C@H](CC[C@@H]3C[C@@H](O)CC(=O)O3)[C@H]21 [lovastatin], which “Relative Risk (C.I.)” value ([1]; Primary Endpoint: acute major coronary events, lovastatin 20-40 mg once a day vs placebo, median 5.2 years) is on record?
Its value is 0.63 (0.50, 0.79),.

What about the “Relative Risk (C.I.)” value ([1]; Secondary Endpoint: Fatal and Nonfatal Cardiovascular Events, lovastatin vs placebo) of the same molecule?
Its value is 0.75 (0.62, 0.91),.

What about the “Relative Risk (C.I.)” value [1, 3] of the same molecule?
The value was 0.75 (0.61, 0.92),.

And the “Risk Reduction” value [1, 3]?
The value was 25%.

And the “Relative Risk (C.I.)” value ([1]; Secondary Endpoint: Fatal and Nonfatal MI, lovastatin vs placebo)?
Its value is 0.60 (0.43, 0.83),.

And the “Relative Risk (C.I.)” value ([1]; Secondary Endpoint: Revascularizations, lovastatin vs placebo)?
Its value is 0.67 (0.52, 0.85),.

And the “Relative Risk (C.I.)” value ([1]; Secondary Endpoint: Unstable Angina, lovastatin vs placebo)?
The value was 0.68 (0.48, 0.95),.

What about the “% change in HDL-C from baseline to the one year point” value (from here on “% change in HDL-C from baseline”) ([1]; baseline HDL-C tertile 34.5-39.5 mg/dl) of the same molecule?
Its value is 6.2%.

What about the “% change in HDL-C from baseline” value ([1]; baseline HDL-C tertile <34.0 mg/dl) of the same molecule?
The value was 7.4%.

And the “% change in HDL-C from baseline” value ([1]; baseline HDL-C tertile >39.5 mg/dl)?
The value was 4.3%.

What about the “% change in LDL-C from baseline to the one year point” value (“% change in LDL-C from baseline” below) ([1]; baseline LDL-C tertile 142.0-156.8 mg/dl) of the same molecule?
The value was −26.0%.

What about the “% change in LDL-C from baseline” value ([1]; baseline LDL-C tertile <142 mg/dl) of the same molecule?
Its value is −20.1%.

And the “% change in LDL-C from baseline” value ([1]; baseline LDL-C tertile >156.9 mg/dl)?
Its value is −28.9%.

What about the “dependence of risk reduction on baseline LDL-C and HDL-C” value ([1]; first acute major coronary events by LDL-C and HDL-C tertiles at randomization) of the same molecule?
Its value is “independent of baseline LDL-C and HDL-C”.

And the “Relative Risk (95% C.I.)” value [1, 4]?
The value was 0.57.

What about the “Risk Reduction” value [1, 4] of the same molecule?
The value was 43%.

What about the “Relative Risk (95% C.I.)” value [1, 5] of the same molecule?
Its value is 0.55.

What about the “Risk Reduction” value [1, 5] of the same molecule?
Its value is 45%.

And the “Relative Risk (95% C.I.)” value [1, 6]?
Its value is 0.85.

What about the “Risk Reduction” value [1, 6] of the same molecule?
The value was 15%.

What about the “Relative Risk (95% C.I.)” value [1, 7] of the same molecule?
Its value is 0.64.

And the “Risk Reduction” value [1, 7]?
The value was 36%.

And the “Relative Risk (95% C.I.)” value [1, 8]?
The value was 0.66.

What about the “Risk Reduction” value [1, 8] of the same molecule?
The value was 34%.

And the “Relative Risk (95% C.I.)” value [1, 9]?
The value was 0.59.

And the “Risk Reduction” value [1, 9]?
Its value is 41%.

What about the “progression of atherosclerotic lesions” value [2] of the same molecule?
Its value is “slow the progression of atherosclerotic lesions”.
